Data on twelve compounds can be found in ChEMBL document CHEMBL1133910, “N-hydroxyformamide peptidomimetics as TACE/matrix metalloprotease inhibitors: oral activity via P1' isobutyl substitution” (Bioorg Med Chem Lett, 2001).

The nature of data set [1]: Area under curve was determined for the compound by intravenous administration of 3.4 mg/kg in rat. Also noted: dose 3.4 mg/kg, route intravenous. It counts as ADME, organism-based. The conditions noted are these: in vivo.
Data set [2] has as its target T1, Disintegrin and metalloproteinase domain-containing protein 17 (Homo sapiens, UniProt P78536). The data set can be described thus: Inhibition of Tumor necrosis factor alpha converting enzyme.
Data set [3] can be described thus: Maximum concentration by intravenous administration of 3.4 mg/kg in rat. It counts as ADME, organism-based. Set-up: dose 3.4 mg/kg, route intravenous. The conditions noted are these: in vivo.
Data set [4] in a line: Maximum concentration by intravenous administration of 1.2 mg/kg in dog. It counts as ADME, organism-based, Canis lupus familiaris. Set-up: dose 1.2 mg/kg, route intravenous. The conditions noted are these: in vivo.
Data set [5] in a line: Bioavailability by intravenous administration of 1.2 mg/kg in dog. In kind it is ADME, organism-based, Canis lupus familiaris. The conditions noted are these: in vivo.
A short description of data set [6]: Half life by intravenous administration of 3.4 mg/kg in rat. It counts as ADME, organism-based. Also noted: dose 3.4 mg/kg, route intravenous. The conditions noted are these: in vivo.
Data set [7] in a line: Half life by intravenous administration of 1.2 mg/kg in dog. In kind it is ADME, organism-based, Canis lupus familiaris. Also noted: dose 1.2 mg/kg, route intravenous. The conditions noted are these: in vivo.
A further data set concerns the target T2, Interstitial collagenase (Homo sapiens, UniProt P03956).
T2 sequence (P03956 whole entry): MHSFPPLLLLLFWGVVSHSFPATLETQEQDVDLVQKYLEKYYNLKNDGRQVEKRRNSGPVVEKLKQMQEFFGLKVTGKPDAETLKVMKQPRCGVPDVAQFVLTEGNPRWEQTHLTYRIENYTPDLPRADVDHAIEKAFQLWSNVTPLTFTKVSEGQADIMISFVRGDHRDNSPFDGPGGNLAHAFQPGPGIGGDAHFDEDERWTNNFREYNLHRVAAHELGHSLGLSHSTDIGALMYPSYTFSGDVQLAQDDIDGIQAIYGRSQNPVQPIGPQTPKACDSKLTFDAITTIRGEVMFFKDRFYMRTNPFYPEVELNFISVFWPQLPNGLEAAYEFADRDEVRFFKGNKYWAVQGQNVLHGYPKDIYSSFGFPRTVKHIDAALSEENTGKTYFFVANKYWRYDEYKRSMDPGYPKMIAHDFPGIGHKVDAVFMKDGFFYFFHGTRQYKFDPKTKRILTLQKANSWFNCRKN
The data set can be described thus: Inhibition of Matrix metalloprotease-1.

The target in data set [8] is Matrix metalloproteinase-9 (Homo sapiens, UniProt P14780). The data set can be described thus: Inhibition of Matrix metalloprotease-9.
Matrix metalloproteinase-9, sequence (P14780 whole entry): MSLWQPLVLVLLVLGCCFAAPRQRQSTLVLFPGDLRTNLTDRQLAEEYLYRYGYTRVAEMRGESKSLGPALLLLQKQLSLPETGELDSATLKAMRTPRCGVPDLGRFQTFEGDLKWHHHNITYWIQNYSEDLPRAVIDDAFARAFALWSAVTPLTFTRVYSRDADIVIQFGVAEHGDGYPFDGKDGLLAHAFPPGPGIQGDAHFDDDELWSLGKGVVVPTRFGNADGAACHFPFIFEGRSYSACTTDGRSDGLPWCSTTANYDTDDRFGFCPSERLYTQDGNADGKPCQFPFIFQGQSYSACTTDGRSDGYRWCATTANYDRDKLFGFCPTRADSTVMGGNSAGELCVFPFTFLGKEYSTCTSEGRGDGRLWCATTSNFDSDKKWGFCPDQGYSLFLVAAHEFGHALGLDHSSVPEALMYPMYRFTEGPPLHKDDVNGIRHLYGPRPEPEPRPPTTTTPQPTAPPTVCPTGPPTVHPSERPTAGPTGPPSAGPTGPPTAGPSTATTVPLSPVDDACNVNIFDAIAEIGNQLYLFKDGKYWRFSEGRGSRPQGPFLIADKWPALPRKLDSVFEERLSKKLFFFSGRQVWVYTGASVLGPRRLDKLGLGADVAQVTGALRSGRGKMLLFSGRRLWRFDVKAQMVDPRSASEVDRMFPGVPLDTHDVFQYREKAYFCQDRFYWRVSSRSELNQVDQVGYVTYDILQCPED
Data set [9] is described as follows: Clearance by intravenous administration of 3.4 mg/kg in rat. In kind it is ADME, organism-based. Set-up: dose 3.4 mg/kg, route intravenous. The conditions noted are these: in vivo.
The nature of data set [10]: Clearance by intravenous administration of 1.2 mg/kg in dog. It counts as ADME, organism-based, Canis lupus familiaris. The conditions noted are these: in vivo. Also noted: dose 1.2 mg/kg, route intravenous.
Data set [11] can be described thus: Bioavailability by intravenous administration of 3.4 mg/kg in rat. It counts as ADME, organism-based. The conditions noted are these: in vivo.
For data set [12], the target named is T3, Stromelysin-1 (Homo sapiens, UniProt P08254). The data set can be described thus: Inhibition of Matrix metalloprotease-3.
T3 sequence (P08254 whole entry): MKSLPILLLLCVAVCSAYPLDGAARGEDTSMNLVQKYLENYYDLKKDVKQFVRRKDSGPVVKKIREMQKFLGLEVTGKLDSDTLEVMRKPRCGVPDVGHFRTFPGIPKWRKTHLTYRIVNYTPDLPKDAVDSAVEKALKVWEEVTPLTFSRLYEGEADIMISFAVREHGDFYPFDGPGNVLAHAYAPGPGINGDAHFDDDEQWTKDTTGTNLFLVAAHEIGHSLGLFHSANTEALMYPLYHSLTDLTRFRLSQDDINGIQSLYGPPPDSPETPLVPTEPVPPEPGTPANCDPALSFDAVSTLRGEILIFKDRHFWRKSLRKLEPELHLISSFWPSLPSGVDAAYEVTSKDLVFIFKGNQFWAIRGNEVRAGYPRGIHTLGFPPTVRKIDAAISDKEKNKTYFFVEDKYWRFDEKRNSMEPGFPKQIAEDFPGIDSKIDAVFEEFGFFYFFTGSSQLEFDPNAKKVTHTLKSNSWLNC
Data set [13] is described as follows: Compound was evaluated for inhibition of cellular release of TNF-alpha from MonoMac-6 cells. In kind it is functional, cell-based. The conditions noted are these: Homo sapiens, MONO-MAC-6.
Data set [14] has as its system Mus musculus. The data set can be described thus: Percent inhibition of Murine Lipopolysaccharide induced plasma TNF on peroral administration of the compound. It counts as functional.
Data set [15] can be described thus: Area under curve was determined for the compound by intravenous administration of 1.2 mg/kg in dog. It counts as ADME, organism-based, Canis lupus familiaris. Set-up: dose 1.2 mg/kg, route intravenous. The conditions noted are these: in vivo.
In data set [16] the target is T3, Stromelysin-1. The data set can be described thus: Inhibition of matrix metalloprotease-3 (MMP3).
Data set [17] has as its system Mus musculus. The data set can be described thus: In vivo inhibition of Murine Lipopolysaccharide induced plasma TNF on peroral administration of the compound. In kind it is functional. Also noted: concentration or dose not given beside the values.
The target in data set [18] is T1, Disintegrin and metalloproteinase domain-containing protein 17. The data set can be described thus: Inhibition of TNF-alpha converting enzyme (TACE).
Data set [19] deals with Mus musculus. The data set can be described thus: In vivo inhibition of Murine Lipopolysaccharide induced plasma TNF on peroral administration of the compound; IA means Inactive. In kind it is functional, organism-based.
For data set [20], the system named is Mus musculus. The data set can be described thus: In vivo inhibition of Murine Lipopolysaccharide induced plasma TNF on peroral administration of the compound; IA means inactive. It counts as functional, organism-based.

pIC50, pKi: −log10 of the molar value. Activity calls are given as the source filed them. No cut-off for these calls is given here.

T1 sequence (P78536 whole entry, the tested form may be a part): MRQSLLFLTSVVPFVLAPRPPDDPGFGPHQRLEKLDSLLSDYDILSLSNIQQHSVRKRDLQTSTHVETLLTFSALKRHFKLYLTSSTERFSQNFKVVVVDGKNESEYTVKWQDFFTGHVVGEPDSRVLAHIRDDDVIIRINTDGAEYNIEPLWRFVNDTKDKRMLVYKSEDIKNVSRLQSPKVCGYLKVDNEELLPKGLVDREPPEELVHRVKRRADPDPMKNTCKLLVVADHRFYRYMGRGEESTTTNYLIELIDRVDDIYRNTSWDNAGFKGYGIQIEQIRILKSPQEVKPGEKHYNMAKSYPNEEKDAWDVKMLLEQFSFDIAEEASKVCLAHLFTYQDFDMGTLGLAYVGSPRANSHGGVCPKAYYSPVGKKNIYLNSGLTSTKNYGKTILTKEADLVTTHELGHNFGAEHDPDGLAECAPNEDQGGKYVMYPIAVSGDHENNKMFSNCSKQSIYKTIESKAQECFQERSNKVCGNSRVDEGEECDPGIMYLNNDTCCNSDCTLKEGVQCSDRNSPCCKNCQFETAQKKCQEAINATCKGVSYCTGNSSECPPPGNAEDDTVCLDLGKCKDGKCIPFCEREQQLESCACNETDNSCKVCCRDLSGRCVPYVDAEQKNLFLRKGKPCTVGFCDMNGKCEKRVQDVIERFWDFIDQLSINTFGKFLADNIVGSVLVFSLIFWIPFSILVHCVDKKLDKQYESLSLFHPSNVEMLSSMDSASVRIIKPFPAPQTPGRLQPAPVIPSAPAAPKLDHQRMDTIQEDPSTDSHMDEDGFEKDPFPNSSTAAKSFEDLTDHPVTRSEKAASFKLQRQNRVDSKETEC

Take `CC(C)C[C@@H](C(=O)N[C@H](C(=O)Nc1nccs1)C(C)(C)C)[C@H](C)N(O)C=O`: the exposure (AUC) (usually concentration integrated over time) in [1] is 957 ng·h/mL; in data set [15] it was 2100 ng·h/mL. Besides, the pKi (as a rule, the Ki on a negative log10 scale, so that one unit is a factor of ten) in data set [2] is 7.70; at Interstitial collagenase, 7.57; in [8], 7.47; at Stromelysin-1 [12] it was 6.36. Further, the highest concentration (Cmax) (as a rule, the highest concentration seen after dosing) in data set [3] was 2330 ng/mL; in [4] it was 4530 ng/mL. For the same compound, the results for the bioavailability in [5] and in data set [11] were 44% and 26%, respectively. For the same compound, the half-life (as a rule, the time in which the quantity being followed falls by half) in [6] is 3.4 h; in data set [7] it was 2.8 h. Besides, the clearance (usually the rate of elimination divided by the concentration) stood at 62 mL/min/kg in [9] and 10 mL/min/kg in data set [10]. Besides, the pIC50 – broadly, the negative decadic logarithm of the IC50, by convention in mol/L – in data set [13] was 6.61. Further, in the data set on Mus musculus [14], the Inhibition (usually the relative decrease from the control value, in per cent) worked out at 60%.
`CNC(=O)[C@@H](NC(=O)[C@H](CC(C)C)[C@H](C)N(O)C=O)C(C)(C)C`: the pKi in [2] is 6.85; on Interstitial collagenase, 7.77; in [8] it was 7.68; at Stromelysin-1 [12], 5.63. This compound also showed a pIC50 in data set [13] of 5.53.
As for `CC[C@@H]([C@@H](CC(C)C)C(=O)N[C@H](C(=O)Nc1nccs1)C(C)(C)C)N(O)C=O`, the pKi in [2] is 7.80; at Stromelysin-1 [16] it was 6.87; at Interstitial collagenase it was 7.80; in data set [8], 7.55. The same compound showed a pIC50 in data set [13] of 6.70. In the data set with Mus musculus [17], this compound returned an Inhibition of 52%.
Consider `CC[C@H](C)[C@H](NC(=O)[C@H](CC(C)C)[C@H](CC)N(O)C=O)C(=O)Nc1nccs1`, for which the pKi in [2] was 7.96; at Stromelysin-1 [16] it was 7.35; at Interstitial collagenase it was 7.38; in [8] it was 7.62. In [13], this compound gave a pIC50 of 7.04. In the data set on Mus musculus [17], this compound returned an Inhibition of 48%.
As for `CC(C)C[C@@H](C(=O)N[C@H](C(N)=O)C(C)(C)C)[C@H](C)N(O)C=O`, the pKi in [2] was 6.81; on Interstitial collagenase, 6.74; in data set [8], 7.48; at Stromelysin-1 [12] it was 6.39. Further, in data set [13], the negative-log IC50 (pIC50) was 5.51.
Take `CNC(=O)[C@@H](NC(=O)[C@@H](CC(=O)NO)CC(C)C)C(C)(C)C` [RO-319790]: the pKi in data set [18] was 7.06; at Interstitial collagenase it was 8.70; in [8] it was 8.70; on Stromelysin-1 [12], 6.51. Moreover, the inhibition entry with Mus musculus [19] is “inactive”. In data set [13], this compound had a pIC50 of 5.24.
Regarding `CC[C@H](C)C(NC(=O)[C@H](CC(C)C)[C@H](C)N(O)C=O)C(=O)Nc1nccs1` (single isomer, unassigned), the pKi in [2] is 7.70; on Interstitial collagenase it was 7.39; in data set [8], 7.54; at Stromelysin-1 [12] it was 7.03. For the same compound, the negative logarithm of the IC50 (pIC50) in data set [13] was 6.57. Besides, in the data set on Mus musculus [17], the Inhibition is on record as 48%.
As to `CC(C)C[C@H](NC(=O)[C@H](CC(C)C)[C@H](C)N(O)C=O)C(=O)Nc1nccs1`, the negative logarithm of the Ki (pKi) in [2] was 7.26; at Interstitial collagenase, 7.01; in data set [8] it was 7.77; on Stromelysin-1 [12] it was 7.10. For the same compound, the inhibition result in the data set with Mus musculus [20] is “inactive”. The compound further showed a pIC50 in data set [13] of 5.77.
For the compound `CCC(C)[C@H](NC(=O)[C@H](CC(C)C)[C@H](CC)N(O)C=O)C(=O)Nc1ccccn1` (stereo not given in full), the pKi in [2] is 7.51; on Stromelysin-1 [16], 7.42; at Interstitial collagenase, 7.26; in [8], 7.14. In addition, the pIC50 in data set [13] was 5.85. The compound also showed an Inhibition in the data set with Mus musculus [17] of 62%.
`CC(C)C[C@@H](C(=O)N[C@H](C(=O)Nc1nccs1)C(C)C)[C@H](C)N(O)C=O`: the pKi is 7.57 in [2], 7.44 at Interstitial collagenase, 7.77 in data set [8] and 6.92 on Stromelysin-1 [12]. For the same compound, the pIC50 in data set [13] is 6.17. This compound showed an Inhibition in the data set on Mus musculus [17] of 61%.
As to `CC(C)C[C@@H](C(=O)N[C@@H](CC(C)(C)C)C(=O)Nc1nccs1)[C@H](C)N(O)C=O`, the pKi in data set [2] is 7.19; on Interstitial collagenase, 6.77; in data set [8] it was 7.01; on Stromelysin-1 [12], 6.45. Also, in the data set on Mus musculus [20], the inhibition result is “inactive”. Also, the negative logarithm of the IC50 (pIC50) in data set [13] was 5.40.
Turning to `CC[C@@H]([C@@H](CC(C)C)C(=O)N[C@H](C(=O)Nc1ccccn1)C(C)(C)C)N(O)C=O`, the pKi in data set [2] was 7.54; at Stromelysin-1 [16], 6.82; at Interstitial collagenase it was 7.33; in data set [8], 7.05. Besides, in data set [13], the negative-log IC50 (pIC50) is 6.52. The Inhibition in the data set with Mus musculus [17] came out at 61%.
